From US11944094B1, “Seed germination activator for control of broomrape” (KING FAISAL UNIVERSITY, priority 2023, dated 2024)

Test system: broomrape
Assay: Field experiment: reduction of broomrape biomass by BIP in irrigation water before planting host crops
Assay type: in vivo, Orobanche
Description: Testing was performed to determine the effect of BIP in different plant species as host crops (faba bean, tomato, and potato), soil type (sand soil and light clay soil), application time (late October and late February), and different climactic regions (Al Behera governate and Al Noubareia), using various concentrations of the substrate (100-500 ppm) to increase the inhibitory effect. […] Thus, BIP, when formulated and administered at 100-500 ppm with the irrigation water is an effective bio agent for controlling broomrape.

## CCCCOC(=O)c1ccccc1C(=O)OCC(C)C [BIP, butylisobutylphthalate]
300 ppm in irrigation water 8-10 days before cultivation, light clay soil for faba beans and potato, sand soil for faba bean, 20th of October
  reduced broomrape biomass: 65%
400 ppm in irrigation water 10 days before planting, sand soil, 15th of February, tomato plants
  reduction in broomrape biomass: 69%
BIP 500 ppm versus 400 ppm
  increase of inhibition effect relative to the activity observed at 400 ppm: ≤ 10%
Faba bean (Misr-3), cultivation October, light clay soil, BIP 300 ppm
  % Reduction Broomrape Biomass: 65.0%
Faba bean (Misr-3), cultivation October, sandy soil, BIP 300 ppm
  % Reduction Broomrape Biomass: 59.8%
Potato (Yarla), cultivation September, light clay soil, BIP 325 ppm
  % Reduction Broomrape Biomass: 62.3%
Tomato (Star Valley), cultivation February, sandy soil, BIP 400 ppm
  % Reduction Broomrape Biomass: 71.8%
Lower concentrations of BIP (100-200 ppm)
  reduction of broomrape: 15%-18%
